# Values of other authors in patent US5849746A, “Substituted 1,4-piperazine-heteroaryl derivatives as 5-HT1D receptor agonists” (Merck Sharp & Dohme Ltd., priority 1995, dated 1998).
# Experiments:
# [1] = test system: human 5-HT1Dα and 5-HT1Dβ receptor subtypes; details: cf. WO-A-91/17174, Table 1
# [2] = humans, therapeutic doses
compound,measurement,setting,value
CNS(=O)(=O)Cc1ccc2[nH]cc(CCN(C)C)c2c1 [sumatriptan],discrimination between human 5-HT1Dα and 5-HT1Dβ receptor subtypes (in words),[1],barely discriminates between the human 5-HT1Dα and 5-HT1Dβ receptor subtypes
same,adverse cardiovascular events,[2],certain adverse cardiovascular events
